Reference: patent US9468209B2, “Method for eradicating weeds with derivatives of 3-acetyl-5-sec-butyl-4-hydroxy-3-pyrrolin-2-one” (priority 2012, dated 2016)

Columns and labels:
[1] = system: photosystem II; experiment: PSII oxygen evolution / electron transfer activity of treated Crofton weed leaves; format: biochemical; settings: 50 μg/mL, strong light 12 hours
Description: (§1) Compounds 10-57 were dissolved in small amount of methanol. The solutions were then diluted with distilled water to a concentration of 50 μg/mL. A mixture of methanol and water in the same ratio as the sample solution was also prepared and used as control in the experiment. The healthy leaves of Crofton weed were washed in water for 30 minutes and then rinsed with distilled water. The clean and tissue dried leaves were placed in petri dish with the back-side of the leaves facing up. Wet filter paper was also placed in the in petri dish for moisture control. Water, methanol and chemical solutions of the analogues were applied to the back-side of each leaf. Test sample was then placed in vacuum chamber at 25° C. for 15 min followed by exposure to the strong light (400 μM m^−2 s^−1) for 12 hours. The leaf sample went through a series of test, and the Hill reaction rate, the electron transfer activity and fluorescence of chlorophyll were measured. Four leaves were used for each treatment and each test was repeated three times.

[2] = system: Hill reaction; experiment: Hill reaction activity of treated Crofton weed leaves; format: biochemical; settings: 50 μg/mL, strong light 12 hours
Description: as §1

[3] = system: fluorescence of chlorophyll; experiment: Fluorescence of chlorophyll of treated Crofton weed leaves; format: biochemical; settings: 50 μg/mL, strong light 12 hours
Description: as §1

[4] = system: Crofton weed; experiment: Needle puncture pathogenic test on slightly wounded leaf of Crofton weed; format: in vivo; settings: Crofton weed leaf; for Avg. diameter of the spot after 24 h / Time of disease spot to occur: analogs with formula (I) and (II); for Time of Disease spot / Average diameter of spot after 24 h: 50 μg/mL, 25° C., natural light
Description: 3-acetyl-5-sec-butyl-4-hydroxy-3-pyrrolin-2-one analogs were dissolved in a small amount of methanol and diluted with water to a concentration of 5-100 μg/g. A pathogenic test was conducted by placing the toxic liquid on the slightly wounded leaf of Crofton weed with a needle. The test has shown that the pathogenic capability of 3-acetyl-5-sec-butyl-4-hydroxy-3-pyrrolin-2-one analogs with respect to Crofton weed increases with the increase of concentration. The spot diameter caused on the leaf of Crofton weed after 24 hours was 2 mm at 50 μg/g.
3-acetyl-5-sec-butyl-4-hydroxy-3-pyrrolin-2-one analogue (Table 3, compounds 10-57) was dissolved in small amount of methanol. The solution was then diluted with distilled water to a concentration of 50 μg/mL. Methanol solution with same concentration and pure distilled water were used as control of the experiment. A pathogenic test was conducted by placing the toxic liquid on the slightly wounded leaf of Crofton weed with a needle. The experiment was carried out at 25° C. under the natural light and each test was repeated 6 times. It was measure the diameter of the spot after 24 h. […] The size of the side chain also has an effect on their activity.
Fourteen salts of 3-acetyl-5-sec-butyl-4-hydroxy-3-pyrrolin-2-one analogs were dissolved in small amount of methanol and diluted with distilled water to a concentration of 50 μg/mL. Methanol/water mixture was also prepared and used as control. Needle puncture method was used for the test on the small pieces of Crofton weed. Each treatment was repeated six times or more. The test samples were kept under natural light at 25° C. for 24 hours. The diameters of damaged spot of the plant leaves were measured by vernier caliper.

SMILES | PSII Activity of oxygen evolution [1] | Activity of Hill Reaction [2] | Fv/Fm [3] | Avg. diameter of the spot after 24 h [4] | Time of disease spot to occur [4] | Time of Disease spot [4] | Average diameter of spot after 24 h [4]
CCC1=C(O)C(C(C)CC)NC1=O (stereo not shown) [Compound 4] | 28.01 uMO2/mgChlh | 51.13 uMO2/mgChlh | 0.83 | 2.97 ± 0.01 mm | 18.5 ± 1.55 h | – | –
CCOC1=C(O)C(C(C)CC)NC1=O (stereo not shown) [Compound 5] | 24.10 uMO2/mgChlh | 52.31 uMO2/mgChlh | 0.82 | 2.35 ± 0.14 mm | 20.7 ± 0.75 h | – | –
CCC(C)C1NC(=O)C(CCc2ccccc2)=C1O (stereo not shown) [Compound 6] | 27.11 uMO2/mgChlh | 50.04 uMO2/mgChlh | 0.81 | 2.12 ± 0.08 mm | 21.2 ± 3.85 h | – | –
CCC(C)C1NC(=O)C(NCCCCl)=C1O (stereo not shown) [Compound 8] | 24.65 uMO2/mgChlh | 49.05 uMO2/mgChlh | 0.79 | 2.53 ± 0.18 mm | 20.0 ± 1.51 h | – | –
CCC(=O)NC1=C(O)C(C(C)CC)NC1=O (stereo not shown) [Compound 9] | 23.33 uMO2/mgChlh | 50.12 uMO2/mgChlh | 0.83 | 2.80 ± 0.33 mm | 21.9 ± 2.00 h | – | –
CC(=O)C1=C(O)CNC1=O [Compound 10] | 47.55 uMO2/mgChlh | 84.32 uMO2/mgChlh | 0.79 | – | – | 29 ± 6.30 h | 1.11 ± 0.16 mm
CC(=O)C1=C(O)C(C)NC1=O (stereo not shown) [Compound 11] | 46.41 uMO2/mgChlh | 80.00 uMO2/mgChlh | 0.82 | – | – | 21.5 ± 0 h | 1.80 ± 0.41 mm
CCC1NC(=O)C(C(C)=O)=C1O (stereo not shown) [Compound 12] | 34.54 uMO2/mgChlh | 70.32 uMO2/mgChlh | 0.83 | – | – | 15.2 ± 0.35 h | 2.77 ± 0.23 mm
CCCC1NC(=O)C(C(C)=O)=C1O (stereo not shown) [Compound 13] | 41.35 uMO2/mgChlh | 78.19 uMO2/mgChlh | 0.85 | – | – | 16.70 ± 0.21 h | 5.21 ± 0.44 mm
CCCCCCCC1NC(=O)C(C(C)=O)=C1O (stereo not shown) [Compound 17] | 27.04 uMO2/mgChlh | 57.13 uMO2/mgChlh | 0.82 | – | – | 9.5 ± 2.36 h | 7.94 ± 1.30 mm
CCCCCCCCC1NC(=O)C(C(C)=O)=C1O (stereo not shown) [Compound 18] | 39.98 uMO2/mgChlh | 67.27 uMO2/mgChlh | 0.80 | – | – | 12.00 ± 0.48 h | 8.27 ± 0.61 mm
CC(=O)C1=C(O)C(Cc2ccccc2)NC1=O (stereo not shown) [Compound 19] | 40.07 uMO2/mgChlh | 63.43 uMO2/mgChlh | 0.79 | – | – | 24 ± 4.00 h | 1.24 ± 0.10 mm
CCCC(c1ccccc1)C1NC(=O)C(C(C)=O)=C1O (stereo not shown) [Compound 20] | 43.40 uMO2/mgChlh | 57.23 uMO2/mgChlh | 0.82 | – | – | 21.1 ± 3.56 h | 1.57 ± 0.04 mm
CC=CC1NC(=O)C(C(C)=O)=C1O (stereo not shown) [Compound 21] | 42.25 uMO2/mgChlh | 62.34 uMO2/mgChlh | 0.77 | – | – | 16.5 ± 1.30 h | 2.89 ± 0.14 mm
CC(=O)C1=C(O)C(C)(C)NC1=O [Compound 22] | 38.05 uMO2/mgChlh | 56.16 uMO2/mgChlh | 0.82 | – | – | 20.0 ± 1.63 h | 1.76 ± 0.24 mm
CCC1(CC)NC(=O)C(C(C)=O)=C1O [Compound 23] | 38.24 uMO2/mgChlh | 63.28 uMO2/mgChlh | 0.79 | – | – | 18.3 ± 2.17 h | 2.23 ± 0.12 mm
CCC1(C)NC(=O)C(C(C)=O)=C1O (stereo not shown) [Compound 24] | 43.01 uMO2/mgChlh | 71.37 uMO2/mgChlh | 0.83 | – | – | 16.21 ± 3.55 h | 2.43 ± 0.07 mm
CCCC1(CCC)NC(=O)C(C(C)=O)=C1O [Compound 25] | 57.12 uMO2/mgChlh | 97.55 uMO2/mgChlh | 0.82 | – | – | 15.22 ± 2.00 h | 2.44 ± 0.10 mm
CCCC1(C)NC(=O)C(C(C)=O)=C1O (stereo not shown) [Compound 26] | 58.01 uMO2/mgChlh | 89.15 uMO2/mgChlh | 0.82 | – | – | 13.61 ± 1.35 h | 3.31 ± 0.07 mm
CCCC1(CC)NC(=O)C(C(C)=O)=C1O (stereo not shown) [Compound 27] | 53.24 uMO2/mgChlh | 91.45 uMO2/mgChlh | 0.81 | – | – | 14.2 ± 4.15 h | 3.18 ± 0.93 mm
CCCCC1(CCCC)NC(=O)C(C(C)=O)=C1O [Compound 28] | 31.76 uMO2/mgChlh | 75.03 uMO2/mgChlh | 0.82 | – | – | 16.9 ± 2.25 h | 2.40 ± 0.11 mm
CCCCC1(CC)NC(=O)C(C(C)=O)=C1O (stereo not shown) [Compound 30] | 22.78 uMO2/mgChlh | 47.33 uMO2/mgChlh | 0.79 | – | – | 13.3 ± 2.00 h | 4.53 ± 1.03 mm
CCC(C)(C)C1NC(=O)C(C(C)=O)=C1O (stereo not shown) [Compound 32] | 32.13 uMO2/mgChlh | 63.42 uMO2/mgChlh | 0.82 | – | – | 12.5 ± 3.75 h | 4.82 ± 1.44 mm
CC(=O)C1=C(O)C(CCC(C)C)NC1=O (stereo not shown) [Compound 33] | 26.54 uMO2/mgChlh | 51.94 uMO2/mgChlh | 0.79 | – | – | 13.5 ± 0.75 h | 4.17 ± 1.15 mm
CC(=O)C1=C(O)C(CC(=O)O)NC1=O (stereo not shown) [Compound 34] | 35.11 uMO2/mgChlh | 65.73 uMO2/mgChlh | 0.81 | – | – | 24.0 ± 0.02 h | 1 ± 0.86 mm
CCCC(C#N)C1NC(=O)C(C(C)=O)=C1O (stereo not shown) [Compound 38] | 40.41 uMO2/mgChlh | 64.69 uMO2/mgChlh | 0.81 | – | – | 13.6 ± 0.50 h | 9.82 ± 0.02 mm
CC(=O)C1=C(O)C(C(C)C)NC1=O (stereo not shown) [Compound 39] | 33.79 uMO2/mgChlh | 62.72 uMO2/mgChlh | 0.80 | – | – | 16.5 ± 2.15 h | 4.89 ± 0.37 mm
CSCCC1NC(=O)C(C(C)=O)=C1O (stereo not shown) [Compound 41] | 41.32 uMO2/mgChlh | 59.07 uMO2/mgChlh | 0.83 | – | – | 20.8 ± 3.00 h | 2.45 ± 0.24 mm
CCC(C)C1NC(=O)C(C(=O)CCCl)=C1O (stereo not shown) [Compound 43] | 47.80 uMO2/mgChlh | 63.35 uMO2/mgChlh | 0.83 | – | – | 20.1 ± 1.15 h | 2.30 ± 0.28 mm
